According to patent EP4603105A1, “PHARMACEUTICAL COMPOSITION CONTAINING CYCLIC COMPOUND HAVING SELECTIVE KRAS INHIBITORY EFFECT AGAINST HRAS AND NRAS” (CHUGAI SEIYAKU KABUSHIKI KAISHA, priority 2022, dated 2024):
Where a SMILES comes first, the peptide text is derived from it. Bridges are numbered along the chain shown (N, C = ends). [ ]: non-standard residue; d: D form. The star is where a group is joined. hPhe(3,5-F2-4-CF3) = N[C@@H](CCc1cc(F)c(C(F)(F)F)c(F)c1)C(=O)O; hPhe(3-Cl-4-CF3) = N[C@@H](CCc1ccc(C(F)(F)F)c(Cl)c1)C(=O)O; NPrPhe(4-CF3) = CCCN[C@@H](Cc1ccc(C(F)(F)F)cc1)C(=O)O; NMeGly(cPent) = CN[C@H](C(=O)O)C1CCCC1; cisHyp = O=C(O)[C@@H]1C[C@H](O)CN1; Hyp = O=C(O)[C@@H]1C[C@@H](O)CN1; NMeD = CN[C@@H](CC(=O)O)C(=O)O; NMeL = CN[C@@H](CC(C)C)C(=O)O; αMeL = CC(C)C[C@](C)(N)C(=O)O; Morpholide = C1CN(*)CCO1; Ac5c = NC1(C(=O)O)CCCC1; Aze = O=C(O)[C@@H]1CCN1; Ac4c = NC1(C(=O)O)CCC1; Sar = CNCC(=O)O

Legend:
[1] = target: GDP-bound NRAS wild-type protein (Homo sapiens, UniProt P01111); test: Binding to NRAS by surface plasmon resonance (SPR), KD and KD ratio to KRAS
Method in brief: (§1)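 Single-cycle kinetics on GDP-loaded biotin-Avi RAS captured to ~100–300 RU; 75 s ascending injections, 100 µL/min, 30°C. HBS pH 7.4 + 10 mM MgCl2/10 µM GDP/4% DMSO. 1:1 fit, KD.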

[2] = system: human lung cancer strain NCI-H441; format: cell-based
Method in brief: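 Proliferation was scored by […] measured after the reagent was added to cultures kept at 37°C in 5% carbon dioxide.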

HRAS wild-type protein = HRAS wild-type protein (Homo sapiens, UniProt P01112); test: Binding to HRAS by surface plasmon resonance (SPR), KD and KD ratio to KRAS
Method in brief: as §1

[3] = ratio of KD for GDP-bound NRAS wild-type protein to KD for KRAS
[4] = ratio of KD for HRAS wild-type protein to KD for KRAS
[5] = ratio of KD value for GDP-bound NRAS wild-type protein to KD value for KRAS (SPR)
[6] = ratio of KD value for HRAS wild-type protein to KD value for KRAS (SPR)
[7] = ratio of the KD value with respect to GDP-bound NRAS wild-type protein to the KD value with respect to KRAS
[8] = ratio of the KD value with respect to HRAS wild-type protein to the KD value with respect to KRAS

HRAS wild-type protein, sequence (P01112 whole entry): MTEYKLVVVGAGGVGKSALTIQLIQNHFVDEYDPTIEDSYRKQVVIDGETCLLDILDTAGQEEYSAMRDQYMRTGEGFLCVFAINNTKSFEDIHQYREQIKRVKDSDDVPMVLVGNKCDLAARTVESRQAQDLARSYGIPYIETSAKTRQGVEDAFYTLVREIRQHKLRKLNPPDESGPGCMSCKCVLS
GDP-bound NRAS wild-type protein, sequence (P01111 whole entry): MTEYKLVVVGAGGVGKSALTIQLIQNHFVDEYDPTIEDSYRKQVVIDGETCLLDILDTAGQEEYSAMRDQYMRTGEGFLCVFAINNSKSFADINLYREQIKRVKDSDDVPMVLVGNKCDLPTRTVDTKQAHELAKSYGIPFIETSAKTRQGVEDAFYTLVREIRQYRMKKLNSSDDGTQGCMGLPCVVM

| SMILES | NRAS /KRAS [1, 3] | IC50 [2] | HRAS /KRAS (HRAS wild-type protein; [4]) | NRAS /KRAS [1, 5] | HRAS /KRAS (HRAS wild-type protein; [6]) | NRAS /KRAS [1, 7] | HRAS /KRAS (HRAS wild-type protein; [8]) |
| --- | --- | --- | --- | --- | --- | --- | --- |
| CC[C@H](C)[C@@H]1NC(=O)[C@H](CC(C)C)N(C)C(=O)C[C@@H](C(=O)N2CCOCC2)N(C)C(=O)[C@H](C2CCCC2)N(C)C(=O)C2(CCCC2)NC(=O)[C@@H]2CCCN2C(=O)[C@H](CCc2ccc(C(F)(F)F)c(Cl)c2)NC(=O)CN(C)C(=O)[C@H](Cc2ccc(C)cc2)N2CCCCC[C@@H](C2=O)N(C)C(=O)CN(C)C1=O [PP0317] | B (a compound having 3 or more and less than 10 is denoted as B) | 32.2 nM | B (a compound having 3 or more and less than 10 is denoted as B) |  |  |  |  |
| CCO[C@@H]1C[C@H]2C(=O)NC3(CCC3)C(=O)N(C)[C@@H](C3CCCC3)C(=O)N(C)[C@H](C(=O)N(C)C)CC(=O)N(C)[C@@H](CC)C(=O)N[C@@H]([C@@H](C)CC)C(=O)N(C)CC(=O)N(C)[C@H]3C/C=C\CCN(C3=O)[C@@H](Cc3ccc(C(F)(F)F)cc3)C(=O)N(C)CC(=O)N[C@@H](CCc3cc(C)c(Cl)c(C)c3)C(=O)N2C1 [PP1821] |  | 105 nM |  | A (a compound having 10 or more and less than 20 is denoted as A) | A (a compound having 10 or more and less than 20 is denoted as A) |  |  |
| CCCN1C(=O)[C@@H]2CCN2C(=O)CN(C)C(=O)[C@H]([C@@H](C)CC)NC(=O)[C@H](CC(C)C)N(C)C(=O)C[C@@H](C(=O)N2CCOCC2)N(C)C(=O)[C@H](C2CCCC2)N(C)C(=O)[C@](C)(CC(C)C)NC(=O)[C@@H]2CCCN2C(=O)[C@H](CCc2cc(F)c(C(F)(F)F)c(F)c2)NC(=O)CN(C)C(=O)[C@@H]1Cc1ccc(C(F)(F)F)cc1 [PP0795] ([NMeL]I[Sar][Aze][NPrPhe(4-CF3)][Sar][hPhe(3,5-F2-4-CF3)]P[αMeL][NMeGly(cPent)][NMeD]-Morpholide; lactam N-11) | C (A compound having a KD ratio of 0.1 or more and less than 3 is denoted as C) | 356 nM | B (a compound having 3 or more and less than 10 is denoted as B) |  |  |  |  |
| CCO[C@@H]1C[C@H]2C(=O)NC3(CC(C)(C)C3)C(=O)N(C)[C@@H](C(CC)CC)C(=O)N(C)[C@H](C(=O)N(C)C)CC(=O)N(C)[C@H]3CCC/C=C/c4ccc(cc4)C[C@@H](C(=O)N(C)CC(=O)N[C@@H](CCc4ccc(Cl)c(Cl)c4)C(=O)N2C1)N1CC/C=C\C[C@@H](C1=O)N(C)C(=O)CN(C)C(=O)[C@H]([C@@H](C)CC)NC3=O [PP2580] | AA (a compound having 20 or more is denoted as AA) | 7.9 nM | A (a compound having 10 or more and less than 20 is denoted as A) |  |  |  |  |
| CCC[C@H]1C(=O)N[C@@H]([C@@H](C)CC)C(=O)N(C2CC2)CC(=O)N(C)[C@H]2C/C=C\CCN(C2=O)[C@@H](Cc2ccc(C)cc2)C(=O)N(C)CC(=O)N[C@@H](CCc2cc(F)c3c(c2)CCC3)C(=O)N2C[C@H](OCC)C[C@H]2C(=O)NC2(CC(C)(C)C2)C(=O)N(C)[C@@H](C2CCCC2)C(=O)N(C)[C@H](C(=O)N(C)C)CC(=O)N1C [PP2879] | A (a compound having 10 or more and less than 20 is denoted as A) | 122 nM | A (a compound having 10 or more and less than 20 is denoted as A) |  |  |  |  |
| CC[C@H](C)[C@@H]1NC(=O)[C@@H]2CCCCCc3ccc(cc3)C[C@@H](C(=O)N(C)CC(=O)N[C@@H](CCc3ccc(C(F)(F)F)c(OC)c3)C(=O)N3C[C@H](OC(C)C)C[C@H]3C(=O)NC3(CC(C)(C)C3)C(=O)N(C)[C@@H](C3CCCC3)C(=O)N(C)[C@H](C(=O)N(C)C)CC(=O)N2C)N2CC/C=C\C[C@@H](C2=O)N(C)C(=O)CN(C)C1=O [PP3072] | A (a compound having 10 or more and less than 20 is denoted as A) | 2.6 nM | B (a compound having 3 or more and less than 10 is denoted as B) |  |  |  |  |
| CCO[C@@H]1C[C@H]2C(=O)NC3(CC(C)(C)C3)C(=O)N(C)[C@@H](C(CC)CC)C(=O)N(C)[C@H](C(=O)N(C)C)CC(=O)N(C)[C@@H](CC)C(=O)N[C@@H]([C@@H](C)CC)C(=O)N(C)CC(=O)N(C)[C@H]3C/C=C\CCN(C3=O)[C@@H](Cc3ccc(C)cc3)C(=O)N(C)CC(=O)N[C@@H](CCc3ccc(C(F)(F)F)c(Cl)c3)C(=O)N2C1 [PP2154] |  | 17.7 nM |  |  |  | A (a compound having 10 or more and less than 20 is denoted as A) | A (a compound having 10 or more and less than 20 is denoted as A) |
| CCCN1C(=O)CN(C)C(=O)CN(C)C(=O)[C@H]([C@@H](C)CC)NC(=O)[C@H](CC(C)C)N(C)C(=O)C[C@@H](C(=O)N2CCOCC2)NC(=O)[C@H](C2CCCC2)N(C)C(=O)C2(CCC2)NC(=O)[C@@H]2C[C@@H](OCC)CN2C(=O)[C@H](CCc2ccc(C(F)(F)F)c(Cl)c2)NC(=O)CN(C)C(=O)[C@@H]1Cc1ccc(C(F)(F)F)cc1 [PP0324] ([NMeL]I[Sar][Sar][NPrPhe(4-CF3)][Sar][hPhe(3-Cl-4-CF3)][Hyp](Et)[Ac4c][NMeGly(cPent)]D-Morpholide; lactam N-11) | B (a compound having 3 or more and less than 10 is denoted as B) | 38.5 nM | B (a compound having 3 or more and less than 10 is denoted as B) |  |  |  |  |
| CCO[C@@H]1C[C@H]2C(=O)NC3(CC(C)(C)C3)C(=O)N(C)[C@@H](C(CC)CC)C(=O)N(C)[C@H](C(=O)N(C)C)CC(=O)N(C)[C@@H](C(C)C)C(=O)N[C@@H]([C@@H](C)CC)C(=O)N(C)CC(=O)N(C)[C@H]3C/C=C\CCN(C3=O)[C@@H](Cc3ccc(C(F)(F)F)cc3)C(=O)N(C)CC(=O)N[C@@H](CCc3ccc(Cl)c(Cl)c3)C(=O)N2C1 [PP2181] |  | 40.3 nM |  |  |  | AA (a compound having 20 or more is denoted as AA) | A (a compound having 10 or more and less than 20 is denoted as A) |
| CCO[C@@H]1C[C@H]2C(=O)NC3(CCC3)C(=O)N(C)[C@@H](C3CCCC3)C(=O)N(C)[C@H](C(=O)N(C)C)CC(=O)N(C)[C@@H](CC(C)(C)C)C(=O)N[C@@H]([C@@H](C)CC)C(=O)N(C)CC(=O)N(C)[C@H]3CCCCN(C3=O)[C@@H](Cc3ccc(C(F)(F)F)cc3)C(=O)N(C)CC(=O)N[C@@H](CCc3cc(F)c(C(F)(F)F)c(F)c3)C(=O)N2C1 [PP0699] |  | 2.9 nM |  |  |  | C (A compound having a KD ratio of 0.1 or more and less than 3 is denoted as C) | C (A compound having a KD ratio of 0.1 or more and less than 3 is denoted as C) |
| CCC[C@H]1C(=O)N[C@@H]([C@@H](C)CC)C(=O)N(C)CC(=O)N(C)[C@H]2C/C=C\CCN(C2=O)[C@@H](Cc2ccc(C(F)(F)F)cc2)C(=O)N(C)CC(=O)N[C@@H](CCc2ccc(C(F)(F)F)c(Cl)c2)C(=O)N2CCOC[C@H]2C(=O)NC2(CC(C)(C)C2)C(=O)N(C)[C@@H](C(CC)CC)C(=O)N(C)[C@H](C(=O)N(C)C)CC(=O)N1C [PP2929] | AA (a compound having 20 or more is denoted as AA) | 90.3 nM | A (a compound having 10 or more and less than 20 is denoted as A) |  |  |  |  |
| CC[C@H](C)[C@@H]1NC(=O)[C@H](CC2CC2)N(C)C(=O)C[C@@H](C(=O)N(C)C)N(C)C(=O)[C@H](C2CCCC2)N(C)C(=O)C2(CCC2)NC(=O)[C@@H]2C[C@@H](F)CN2C(=O)[C@H](CCc2cc(F)c(C(F)(F)F)c(F)c2)NC(=O)CN(C)C(=O)[C@H](Cc2ccc(C(F)(F)F)cc2)N2CC/C=C\C[C@@H](C2=O)N(C)C(=O)CN(C)C1=O [PP1497] |  | 10.7 nM |  | A (a compound having 10 or more and less than 20 is denoted as A) | A (a compound having 10 or more and less than 20 is denoted as A) |  |  |
| CCCN1C(=O)CN(C)C(=O)CN(C)C(=O)[C@H]([C@@H](C)CC)NC(=O)[C@H](CC(C)C)N(C)C(=O)C[C@@H](C(=O)N2CCOCC2)N(C)C(=O)[C@H](C2CCCC2)N(C)C(=O)C2(CCCC2)NC(=O)[C@@H]2C[C@H](OCC)CN2C(=O)[C@H](CCc2ccc(C(F)(F)F)c(Cl)c2)NC(=O)CN(C)C(=O)[C@@H]1Cc1ccc(C(F)(F)F)cc1 [PP0243] ([NMeL]I[Sar][Sar][NPrPhe(4-CF3)][Sar][hPhe(3-Cl-4-CF3)][cisHyp](Et)[Ac5c][NMeGly(cPent)][NMeD]-Morpholide; lactam N-11) | B (a compound having 3 or more and less than 10 is denoted as B) | 23.2 nM | C (A compound having a KD ratio of 0.1 or more and less than 3 is denoted as C) |  |  |  |  |
| CCO[C@@H]1C[C@H]2C(=O)NC3(CC(C)(C)C3)C(=O)N(C)[C@@H](C3CCCC3)C(=O)N(C)[C@H](C(=O)N(C)C)CC(=O)N(C)[C@@H](CC(C)C)C(=O)N[C@@H]([C@@H](C)CC)C(=O)N(C)CC(=O)N(C)[C@H]3C/C=C\CCN(C3=O)[C@@H](Cc3ccc(C(C)=O)cc3)C(=O)N(C)CC(=O)N[C@@H](CCc3ccc(C(F)(F)F)c(OC)c3)C(=O)N2C1 [PP2694] | A (a compound having 10 or more and less than 20 is denoted as A) | 12 nM | B (a compound having 3 or more and less than 10 is denoted as B) |  |  |  |  |
